Assay results reported in DBAASP.
In brackets after ≈: the same amount, converted by molar mass. Several values for one entry are separate records, joined by “and”; a condition that tells them apart may be missing. Identical values can stand only once. One block for each molecule: values may come before it.

Legend:
Assay in all cases: ≥ marks a high value that may be exact or a test limit, other limits are often not marked, values filed in µg/mL are converted to µM
[1] = test system: Staphylococcus aureus ATCC 6538P
[2] = test system: Burkholderia cepacia 6/06
[3] = test system: Bacillus subtilis ATCC 9466
[4] = test system: Pseudomonas aeruginosa ATCC 15442
[5] = test system: Stenotrophomonas maltophilia FC
[6] = test system: Staphylococcus aureus Cowan 1
[7] = test system: Pseudomonas aeruginosa
[8] = test system: Escherichia coli HB101
[9] = test system: Staphylococcus aureus
[10] = test system: Candida albicans
[11] = test system: Staphylococcus aureus ATCC 29213
[12] = test system: Staphylococcus epidermidis ATCC 12228
[13] = test system: Salmonella enterica subsp. enterica serovar Choleraesuis ATCC 10708
[14] = test system: Staphylococcus aureus ATCC 43300
[15] = test system: Pseudomonas aeruginosa ATCC 27853
[16] = test system: Acinetobacter baumannii ATCC 19606
[17] = test system: Staphylococcus aureus ATCC 33591
[18] = test system: Klebsiella pneumoniae ATCC 13883
[19] = test system: Escherichia coli ATCC 25922
[20] = test system: Listeria monocytogenes DSM 20600
[21] = test system: Staphylococcus aureus DSM 2569
[22] = test system: Listeria fleischmannii DSM 24998
[23] = test system: Micrococcus luteus DSM 20030
[24] = test system: Pseudomonas aeruginosa PAO1
[25] = test system: Enterococcus faecalis ATCC 29212
[26] = test system: Escherichia coli UB1005
[27] = test system: Salmonella typhimurium ATCC 7731
[28] = test system: Salmonella enterica subsp. enterica serovar Typhimurium ATCC 14028
[29] = test system: Bacillus subtilis CMCC 63501
[30] = test system: Staphylococcus aureus ATCC 25923
[31] = test system: Candida albicans ATCC 18804
[32] = test system: Pseudomonas aeruginosa H188
[33] = test system: Escherichia coli
[34] = test system: Escherichia coli DH5alpha
[35] = test system: Vibrio parahaemolyticus ATCC 33847
[36] = test system: Vibrio anguillarum ATCC 19264
[37] = test system: Listeria monocytogenes ATCC 19115
[38] = test system: Vibrio alginolyticus ATCC 17749
[39] = test system: Aeromonas hydrophila ATCC 7966
[40] = test system: Staphylococcus aureus ATCC 6538
[41] = test system: Mycobacterium tuberculosis H37Rv
[42] = test system: Streptococcus pneumoniae ATCC 49619

SMILES: CSCC[C@H](NC(=O)[C@@H](NC(=O)CNC(=O)[C@H](CC(C)C)NC(=O)[C@H](CCCCN)NC(=O)[C@H](CCCCN)NC(=O)[C@H](CC(C)C)NC(=O)[C@H](CCSC)NC(=O)[C@@H](NC(=O)[C@H](CCCCN)NC(=O)[C@H](Cc1cnc[nH]1)NC(=O)[C@H](CC(C)C)NC(=O)[C@H](C)N)[C@@H](C)O)[C@@H](C)O)C(=O)N[C@@H](C)C(=O)N[C@@H](CC(C)C)C(N)=O [ALHKTMLKKLGTMAL]
MIC [1]: ≥ 45 µM | MIC [2]: ≥ 45 µM | MIC [3]: ≥ 45 µM | MIC [4]: ≥ 45 µM | MIC [5]: ≥ 45 µM | MIC [6]: ≥ 44.9 µM | MIC [7]: > 45 µM | MIC [8]: ≥ 44.9 µM | MIC [9]: > 45 µM | MIC [10]: > 45 µM

SMILES: CC[C@H](C)[C@H](NC(=O)[C@H](C)NC(=O)[C@H](CO)NC(=O)[C@@H]1CCCN1C(=O)[C@@H](NC(=O)[C@H](CC(C)C)NC(=O)[C@H](CO)NC(=O)[C@H](Cc1ccccc1)NC(=O)[C@H](CC(C)C)NC(=O)[C@@H](N)Cc1ccccc1)[C@@H](C)CC)C(=O)NCC(=O)NCC(=O)N[C@@H](CC(C)C)C(=O)N[C@H](C(=O)N[C@@H](CO)C(=O)N[C@@H](C)C(=O)N[C@@H](Cc1ccccc1)C(=O)N[C@@H](CCCCN)C(=O)O)[C@@H](C)CC [FLFSLIPSAIGGLISAFK]
MIC [11]: 5 µM (≈ 9.41 µg/mL) | MIC [12]: 7.5 µM (≈ 14.1 µg/mL) | MIC [13]: ≥ 60 µM | MIC [14]: 5 µM (≈ 9.41 µg/mL) | MIC [15]: 40 µM (≈ 75.3 µg/mL) | MIC [16]: 20 µM (≈ 37.6 µg/mL) | MIC [17]: 5 µM (≈ 9.41 µg/mL) | MIC [18]: ≥ 60 µM | MIC [19]: 50 µM (≈ 94.1 µg/mL)

SMILES: CC[C@H](C)[C@H](NC(=O)CNC(=O)[C@H](CC(N)=O)NC(=O)[C@H](Cc1c[nH]c2ccccc12)NC(=O)[C@@H](NC(=O)[C@@H](NC(=O)[C@H](CO)NC(=O)[C@H](CC(C)C)NC(=O)[C@@H](N)Cc1ccccc1)[C@@H](C)O)[C@@H](C)CC)C(=O)N[C@@H](CCCCN)C(=O)N[C@@H](CO)C(=O)N[C@@H](CC(C)C)C(=O)N[C@@H](Cc1ccccc1)C(N)=O [FLSTIWNGIKSLF]
MIC [20]: 15 µM (≈ 22.9 µg/mL) | MIC [21]: 8 µM (≈ 12.2 µg/mL) | MIC [22]: 15 µM (≈ 22.9 µg/mL) | MIC [23]: 4 µM (≈ 6.1 µg/mL)

SMILES: CC[C@H](C)[C@H](NC(=O)[C@H](CCCCN)NC(=O)[C@H](CCCCN)NC(=O)[C@H](Cc1ccccc1)NC(=O)[C@H](CC(C)C)NC(=O)[C@H](CCCCN)NC(=O)[C@H](Cc1c[nH]c2ccccc12)NC(=O)[C@H](CCCCN)NC(=O)[C@@H](NC(=O)[C@H](CCCN=C(N)N)NC(=O)[C@@H](NC(=O)[C@H](CCCN=C(N)N)NC(=O)[C@@H](NC(=O)[C@H](CCCN=C(N)N)NC(=O)[C@@H](N)Cc1ccccc1)[C@@H](C)CC)C(C)C)C(C)C)C(N)=O [FRIRVRVKWKLFKKI]
MIC [24]: 2 µM (≈ 4.03 µg/mL) | MIC [11]: 2 µM and 4 µM | MIC [25]: 1 µM (≈ 2.02 µg/mL) | MIC [26]: 2 µM (≈ 4.03 µg/mL) | MIC [12]: 0.5 µM (≈ 1.01 µg/mL) | MIC [27]: 4 µM (≈ 8.07 µg/mL) | MIC [15]: 2 µM (≈ 4.03 µg/mL) | MIC [28]: 4 µM (≈ 8.07 µg/mL) | MIC [19]: 2 µM and 4 µM | MIC [29]: 1 µM (≈ 2.02 µg/mL)

SMILES: CC(C)C[C@H](NC(=O)[C@H](Cc1cnc[nH]1)NC(=O)[C@H](Cc1ccc(O)cc1)NC(=O)[C@H](CCCN=C(N)N)NC(=O)[C@H](Cc1ccc(O)cc1)NC(=O)[C@H](CCCCN)NC(=O)[C@@H](N)CCCCN)C(=O)N[C@@H](CCCCN)C(=O)N1CCC[C@H]1C(=O)N[C@@H](Cc1ccccc1)C(=O)N[C@@H](CO)C(=O)N[C@@H](CCCCN)C(=O)N[C@@H](CCCCN)C(N)=O [KKYRYHLKPFSKK]
MIC [30]: > 128 µM | MIC [19]: 128 µM (≈ 220 µg/mL) | MIC [31]: ≥ 128 µM

Further lines, with some results ahead:

MIC [32]: 1.37 µM (≈ 4.06 µg/mL) | MIC [33]: 0.342 µM (≈ 1.01 µg/mL) | MIC [15]: 1.37 µM (≈ 4.06 µg/mL) | MIC [19]: 0.685 µM (≈ 2.03 µg/mL) | MIC [34]: 1.37 µM (≈ 4.06 µg/mL)
SMILES: CC[C@H](C)[C@H](NC(=O)[C@H](C)NC(=O)[C@H](CCCCN)NC(=O)[C@H](CC(C)C)NC(=O)[C@H](C)NC(=O)[C@@H](NC(=O)[C@H](Cc1cnc[nH]1)NC(=O)[C@H](CC(C)C)NC(=O)[C@H](C)NC(=O)[C@@H](NC(=O)[C@H](CCCCN)NC(=O)[C@H](CCCCN)NC(=O)[C@H](C)NC(=O)[C@H](CO)NC(=O)[C@H](CCCCN)NC(=O)[C@H](Cc1ccccc1)NC(=O)[C@@H](NC(=O)[C@H](CCCCN)NC(=O)[C@H](CC(C)C)NC(=O)[C@H](Cc1ccccc1)NC(=O)[C@H](CO)NC(=O)[C@H](CCCCN)NC(=O)[C@H](Cc1c[nH]c2ccccc12)NC(=O)[C@H](CCCCN)NC(C)=O)[C@@H](C)O)[C@@H](C)O)[C@@H](C)O)C(=O)N[C@@H](CO)C(=O)N[C@@H](CO)C(N)=O [KWKSFLKTFKSAKKTALHTALKAISS]

MIC [36]: ≥ 44.6 µM | MIC [37]: 1.39 µM (≈ 3.13 µg/mL) | MIC [38]: ≥ 44.6 µM | MIC [39]: ≥ 44.6 µM | MIC [40]: 2.78 µM (≈ 6.25 µg/mL)
SMILES: CC(C)C[C@H](N)C(=O)NCC(=O)NCC(=O)N[C@@H](CC(=O)O)C(=O)N[C@@H](CC(N)=O)C(=O)N[C@@H](Cc1ccc(O)cc1)C(=O)NCC(=O)N[C@H](C(=O)N[C@@H](Cc1ccccc1)C(=O)N[C@@H](CO)C(=O)NCC(=O)N[C@@H](CO)C(=O)N[C@@H](CC(N)=O)C(=O)NCC(=O)N[C@@H](CC(N)=O)C(=O)N[C@@H](CC(N)=O)C(=O)N[C@@H](Cc1ccccc1)C(=O)N[C@@H](CCC(N)=O)C(=O)N[C@@H](Cc1cnc[nH]1)C(=O)NCC(=O)N[C@@H](CO)C(=O)N[C@@H](CC(N)=O)C(=O)O)[C@@H](C)O [LGGDNYGTFSGSNGNNFQHGSN]
MIC [35]: 22.3 µM (≈ 50 µg/mL)

MIC [41]: ≥ 300 µM | MIC [42]: ≥ 300 µM
SMILES: C[C@@H](O)[C@H](N)C(=O)N[C@@H](CCCCN)C(=O)N1CCC[C@H]1C(=O)N[C@@H](CCCCN)C(=O)NCC(=O)N[C@H](C(=O)N[C@@H](CCCCN)C(=O)N1CCC[C@H]1C(=O)N[C@@H](CCCCN)C(=O)NCC(=O)N[C@H](C(=O)N[C@@H](CCCCN)C(=O)N1CCC[C@H]1C(=O)N[C@@H](CCCCN)C(=O)NCC(=O)N[C@H](C(=O)N[C@@H](CCCCN)C(=O)N1CCC[C@H]1C(=O)N[C@@H](CCCCN)C(=O)NCC(N)=O)[C@@H](C)O)[C@@H](C)O)[C@@H](C)O [TKPKGTKPKGTKPKGTKPKG]
